# Source: patent publication US20170165317A1, “METHOD FOR MITIGATING OR ALLEVIATING SYNAPTIC AND COGNITIVE DEFICITS” (Trustees of Dartmouth College, priority 2013, published 2017)
# Legend:
# Aβ42 = molecular target: T1, Aβ42 (Homo sapiens, UniProt P05067); experiment: Thioflavin-T fluorescence assay of Aβ42 aggregation; type: biochemical; settings: 50 nM VO-OHpic or 15 nM bPV(HOpic), 37° C.
# T1 construct: Lyophilized Aβ42 peptide was purchased from Keck Facility at Yale University; purchased Keck Facility at Yale University; host or cells: synthetic peptide
# Experimental: Freshly prepared Aβ42 was prepared as described for protofibrillar Aβ42. The Thioflavin-T (ThT) assay was carried out at 37° C., within a dark chamber in a 96-well plate. Each well contained 100 ng/μL of Aβ42, 20 μM ThT and 50 nM VO-OHpic or 15 nM bPV(HOpic). Fluorescence (λex=450 nm; λem=485 nm) was followed over time in a FLUOSTAR OPTIMA (BMG LabTech) fluorescence spectrophotometer. Samples were run in triplicates. […] Thus, the observed rescue of basal synaptic transmission, LTP and cognition, with VO-OHpic was not likely due to an altered aggregation state of Aβ upon PTEN inhibition.
# [1] = system: APPswe/lnd-expressing neurons; experiment: Paired whole-cell recording of AMPAR-mediated EPSCs in APPswe/lnd-expressing CA1 neurons of organotypic hippocampal slices; type: cell-based, rat; settings: 15 nM bPV(HOpic) or 50 nM VO-OHpic during expression
# Experimental: The effect of recombinant protein expression on synaptic transmission was evaluated by simultaneous double whole-cell recordings from pairs of nearby infected and uninfected CA1 neurons, under voltage clamp, while stimulating presynaptic Schaffer collateral fibers (under this configuration, recombinant proteins are expressed exclusively in the postsynaptic neuron).
# The different versions of APP (APPwt, APPswe/lnd APPMV) and EGFP were co-expressed using an internal ribosomal entry site (IRES) construct. The EGFP-tagged versions of PTEN have been described (Jurado, et al. (2010) EMBO J. 29:2827-2840). All constructs were prepared in pSinRep5 for expression using Sindbis virus. Recombinant proteins were expressed in hippocampal CA1 pyramidal neurons from organotypic slice cultures. Organotypic hippocampal slices were prepared from postnatal day 5-7 rats and cultured during 6-8 days.
# The external solution (aCSF) contained 119 mM NaCl, 2.5 mM KCl, 1 mM NaH2PO4, 11 mM glucose, 26 mM NaHCO3, 4 mM MgCl2, 4 mM CaCl2, 100 μM picrotoxin and 2 μM 2-chloroadenosine, pH 7.4, and was gassed with 95% O2 and 5% CO2. […] Bipolar stimulating electrodes were placed over Schaffer collateral fibers between 250 and 300 μm from the CA1 recorded cells, and synaptic responses were evoked with single voltage pulses (200 μs, up to 30 V). […]
# APP/PS1 mice = experiment: Hippocampal APP, C-terminal fragments, Aβ monomers and SDS-resistant Aβ assemblies after in vivo treatment (western blot, ELISA); set-up: species or system mouse; settings: after VO-OHpic treatment, end of last behavioural test
# Experimental: Hippocampal slices overexpressing Aβ were maintained for 3 days after virus injection with or without the PTEN inhibitor VO-OHpic, before culture medium was collected for measurements. Aβ40 and Aβ42 level were determined in solubilized hippocampal fractions, cultured hippocampal slices or conditioned media by ELISA according to the manufacturer's instructions (WAKO/Invitrogen) that specifically detect the C-terminus of Aβ40 and Aβ42, respectively.
# Hippocampi from APP/PS1 mice or their wild-type littermates and organotypic hippocampal slices infected with APPswe/lnd-EGFP/APPwt-EGFP/APPMV-EGFP were solubilized, and extracts were prepared for western blot analysis. Mouse brains or brain sections were homogenized on ice in RIPA buffer (1% TRITON X-100, 1% sodium deoxycholate, 0.1% SDS, 150 mM NaCl, 50 mM Tris-HCl, pH 7.2), using an ULTRATURRAX T25 (Janke & Kunkel). Samples were centrifuged at 15,000×g, and supernatants were used for protein determination. APPsα was detected in conditioned media of the respective slices using antibody 6E10 that selectively detects human APPsα. Levels of APP, CTFα and CTFβ were detected in lysates of the infected slices using APPCt antibody.
# After the end of the last test, the levels of APP and its C-terminal fragments (western blot), Aβ monomers (ELISA), and SDS-resistant. Aβ assemblies (SDS-PAE) were measured from the hippocampus of each mouse. […]
# T1 sequence (P05067 672-713): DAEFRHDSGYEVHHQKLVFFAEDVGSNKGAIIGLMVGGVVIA
structure (smiles),measurement,setting,value
O=C(O)c1ncccc1O.O=C(O)c1ncccc1O.[O]=[V][O-] [VO-OHpic],Aβ42 aggregation (ThT fluorescence),Aβ42,does not alter Aβ42 aggregation
same,AMPAR-mediated EPSCs in APPswe/lnd-expressing neurons relative to uninfected cells,[1],no longer depressed
same,"levels of APP and its C-terminal fragments, Aβ monomers and SDS-resistant Aβ assemblies in hippocampus",APP/PS1 mice,No changes were detected
